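Assay format: 96-well plates, 48-hour exposure. GI50 is the concentration that inhibits growth by half.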 The source made the active and inactive calls. Cut-off read from the data, not from the text of the source: active = GI50 up to about 1.1 µM and inactive = higher.
Key:
Assay in all cases: DTP human tumour cell line panel, 48 h
Malme-3M = system: Malme-3M
A498 = system: A498
NCI/ADR-RES = system: NCI/ADR-RES
HT-29 = system: HT-29
UACC-257 = system: UACC-257
Hs-578T = system: Hs-578T
RXF 393 = system: RXF 393
K562 = system: K562
EKVX = system: EKVX
ACHN = system: ACHN
UACC-62 = system: UACC-62
SR = system: SR
NCI-H23 = system: NCI-H23
MCF7 = system: MCF7
SF-295 = system: SF-295
RPMI-8226 = system: RPMI-8226
MDA-MB-231 = system: MDA-MB-231
OVCAR-8 = system: OVCAR-8
SNB-75 = system: SNB-75
HL-60 = system: HL-60

SMILES	GI50 (Malme-3M)	GI50 (A498)	GI50 (NCI/ADR-RES)	GI50 (HT-29)	GI50 (UACC-257)	GI50 (Hs-578T)	GI50 (RXF 393)	GI50 (K562)	GI50 (EKVX)	GI50 (ACHN)	GI50 (UACC-62)	GI50 (SR)	GI50 (NCI-H23)	GI50 (MCF7)	GI50 (SF-295)	GI50 (RPMI-8226)	GI50 (MDA-MB-231)	GI50 (OVCAR-8)	GI50 (SNB-75)	GI50 (HL-60)
CC1=CC(=O)N(n2c(Cc3ccc(Cl)cc3)n[nH]c2=O)C1=O	94.2 µM (inactive)	71.8 µM (inactive)	> 100 µM (inactive)	19.5 µM (inactive)	> 100 µM (inactive)	35.4 µM (inactive)	8.24 µM (inactive)	23.3 µM (inactive)	49 µM (inactive)	82 µM (inactive)	19.3 µM (inactive)	15.9 µM (inactive)	92.3 µM (inactive)	30.5 µM (inactive)	28.4 µM (inactive)	22.6 µM (inactive)	46.3 µM (inactive)	55.5 µM (inactive)	–	–
O=C(O)Cn1ccc(=O)c2ccc([N+](=O)[O-])cc21	> 100 µM (inactive)	> 100 µM (inactive)	> 100 µM (inactive)	> 100 µM (inactive)	> 100 µM (inactive)	> 100 µM (inactive)	–	> 100 µM (inactive)	–	> 100 µM (inactive)	> 100 µM (inactive)	> 100 µM (inactive)	> 100 µM (inactive)	> 100 µM (inactive)	> 100 µM (inactive)	–	28.8 µM (inactive)	> 100 µM (inactive)	38.4 µM (inactive)	> 100 µM (inactive)
Cc1nc(Nc2ccccc2Cl)sc1C(=O)CC(=O)C(=O)Nc1c(Cl)cccc1Cl	–	–	22.3 µM (inactive)	25.4 µM (inactive)	44.4 µM (inactive)	25.2 µM (inactive)	23.4 µM (inactive)	41.8 µM (inactive)	17.9 µM (inactive)	45 µM (inactive)	45.6 µM (inactive)	31.2 µM (inactive)	50.1 µM (inactive)	28.2 µM (inactive)	27.5 µM (inactive)	28.2 µM (inactive)	13.6 µM (inactive)	29.4 µM (inactive)	24.4 µM (inactive)	8.95 µM (inactive)
CC1(C)O[C@@H](CBr)C[C@H](C[C@H]2C[C@@H](O)C[C@@H](CCOCc3ccccc3)O2)O1	17.3 µM (inactive)	23 µM (inactive)	18.7 µM (inactive)	–	19 µM (inactive)	25.6 µM (inactive)	–	40.2 µM (inactive)	17.8 µM (inactive)	23.2 µM (inactive)	18.4 µM (inactive)	27.7 µM (inactive)	16.3 µM (inactive)	20 µM (inactive)	17 µM (inactive)	27.5 µM (inactive)	40.3 µM (inactive)	21.5 µM (inactive)	20.5 µM (inactive)	–
Cn1c(=O)[nH]n(-c2ccc3ccccc3c2)c1=O	> 100 µM (inactive)	> 100 µM (inactive)	> 100 µM (inactive)	> 100 µM (inactive)	> 100 µM (inactive)	> 100 µM (inactive)	> 100 µM (inactive)	> 100 µM (inactive)	> 100 µM (inactive)	> 100 µM (inactive)	> 100 µM (inactive)	–	> 100 µM (inactive)	> 100 µM (inactive)	> 100 µM (inactive)	> 100 µM (inactive)	> 100 µM (inactive)	> 100 µM (inactive)	> 100 µM (inactive)	> 100 µM (inactive)
Nc1cc2[nH]c(=O)c3cc(Cl)ccc3c2cc1Cl	14.7 µM (inactive)	–	13.3 µM (inactive)	22.3 µM (inactive)	21.1 µM (inactive)	39.1 µM (inactive)	–	23 µM (inactive)	2.52 µM (inactive)	6.59 µM (inactive)	16.7 µM (inactive)	2.44 µM (inactive)	15.8 µM (inactive)	0.149 µM (active)	9.12 µM (inactive)	0.514 µM (active)	14.1 µM (inactive)	3 µM (inactive)	15.5 µM (inactive)	32.4 µM (inactive)
Cc1nc(N)c(N2CCN(C#N)CC2)c(O)n1	> 100 µM (inactive)	> 100 µM (inactive)	> 100 µM (inactive)	> 100 µM (inactive)	> 100 µM (inactive)	> 100 µM (inactive)	–	> 100 µM (inactive)	> 100 µM (inactive)	> 100 µM (inactive)	–	> 100 µM (inactive)	> 100 µM (inactive)	> 100 µM (inactive)	> 100 µM (inactive)	> 100 µM (inactive)	> 100 µM (inactive)	> 100 µM (inactive)	> 100 µM (inactive)	> 10 µM (inactive)
CC(=O)N1c2ccccc2C2=NN=C(N(C)C)SC21 (stereo not drawn)	3.37 µM (inactive)	3.17 µM (inactive)	2.75 µM (inactive)	4.86 µM (inactive)	3.64 µM (inactive)	13.5 µM (inactive)	–	3.37 µM (inactive)	2.75 µM (inactive)	2.54 µM (inactive)	–	3.28 µM (inactive)	5.19 µM (inactive)	4.06 µM (inactive)	2.41 µM (inactive)	5.96 µM (inactive)	1.89 µM (inactive)	2.65 µM (inactive)	13.6 µM (inactive)	2.14 µM (inactive)
COc1cc2nc(-c3cccs3)nc(Cl)c2cc1OC	> 100 µM (inactive)	19.8 µM (inactive)	> 100 µM (inactive)	61.7 µM (inactive)	68.9 µM (inactive)	> 100 µM (inactive)	–	69.5 µM (inactive)	18.6 µM (inactive)	> 100 µM (inactive)	> 100 µM (inactive)	0.339 µM (active)	> 100 µM (inactive)	23.4 µM (inactive)	> 100 µM (inactive)	–	> 100 µM (inactive)	> 100 µM (inactive)	> 100 µM (inactive)	> 100 µM (inactive)
CC(=O)Nc1cc(C(=O)Nc2cc(C(=O)Nc3cc(C(=O)Nc4cc(C(=O)Nc5cc(C(=O)NCCC(=O)NCCCN(C)C)n(C)c5)n(C)c4)n(C)c3)n(C)c2)n(C)c1	27.5 µM (inactive)	> 100 µM (inactive)	> 100 µM (inactive)	> 100 µM (inactive)	76.2 µM (inactive)	34.2 µM (inactive)	> 100 µM (inactive)	58.7 µM (inactive)	> 100 µM (inactive)	> 100 µM (inactive)	–	–	> 100 µM (inactive)	28.2 µM (inactive)	> 100 µM (inactive)	> 100 µM (inactive)	> 100 µM (inactive)	> 100 µM (inactive)	> 100 µM (inactive)	41.2 µM (inactive)
NC(Cc1ccc(S(=O)(=O)O)cc1)C(=O)NC(CCCCNC(=O)NCCCCC(NC(=O)C(N)Cc1ccc(S(=O)(=O)O)cc1)C(=O)NC(Cc1ccc(S(=O)(=O)O)cc1)C(=O)O)C(=O)NC(Cc1ccc(S(=O)(=O)O)cc1)C(=O)O (stereo not drawn)	> 100 µM (inactive)	> 100 µM (inactive)	> 100 µM (inactive)	> 100 µM (inactive)	> 100 µM (inactive)	> 100 µM (inactive)	> 100 µM (inactive)	> 100 µM (inactive)	> 100 µM (inactive)	> 100 µM (inactive)	> 100 µM (inactive)	–	> 100 µM (inactive)	69.5 µM (inactive)	> 100 µM (inactive)	> 100 µM (inactive)	> 100 µM (inactive)	> 100 µM (inactive)	> 100 µM (inactive)	> 100 µM (inactive)
